≈ marks a conversion by molar mass, not a printed value. Calls of active or inactive are those of the source. The calls are words filed in the database; no cut-off is given here. Bounds are passed on as bounds.

Data on 3 compounds can be found in ChEMBL document CHEMBL5512659, “Structure optimizing of flavonoids against both MRSA and VRE” (Eur J Med Chem, 2024).

Series [1] concerns Cell membrane. The series can be described thus: Disruption of membrane permeability in multidrug resistant Enterococcus faecalis ATCC 51299 assessed as increase in malondialdehyde level.
The subject of series [2] is Enterococcus faecalis. Put plainly: Antibacterial activity against multidrug resistant Enterococcus faecalis ATCC 51299 in presence of 2.5 mM/L Ca+ (reference value: 1 ug/ml). The series is classed as functional.
Series [3] relates to Staphylococcus aureus. Put plainly: Additive antibacterial activity against methicillin resistant Staphylococcus aureus clinical isolate 003 assessed as fractional inhibitory concentration in presence of ampicillin. The series is classed as functional.
In series [4] the test system is Staphylococcus aureus. Put plainly: Antibacterial activity against methicillin resistant Staphylococcus aureus clinical isolate 003 in presence of cardiolipin. The series is classed as functional, organism-based.
For series [5], the system named is Enterococcus faecalis. The series can be described thus: Antibacterial activity against Enterococcus faecalis clinical isolate 13. The series is classed as functional.
The test system of series [6] is Enterococcus faecalis. The series can be described thus: Additive antibacterial activity against multidrug resistant Enterococcus faecalis ATCC 51299 assessed as fractional inhibitory concentration in presence of streptomycin. In kind it is functional.
The subject of series [7] is Cell membrane. Put plainly: Disruption of membrane permeability in multidrug resistant Enterococcus faecalis ATCC 51299 assessed as protein leakage at 2 to 4 times MIC. The series is classed as cell membranes.
Series [8] relates to Staphylococcus aureus. Put plainly: Antibacterial activity against methicillin resistant Staphylococcus aureus clinical isolate 003 infected in cyclophosphamide immunosuppressed mouse model of skin wound infection assessed as wound healing at 1.25 to 5 mg/kg administered for 7 days and measured on day 8. The series is classed as functional, organism-based. Particulars: dose 1.25-5 mg/kg, time 8.0 day.

The subject of series [9] is Enterococcus faecalis. Put plainly: Synergistic antibacterial activity against multidrug resistant Enterococcus faecalis ATCC 51299 assessed as fractional inhibitory concentration in presence of adriamycin hydrochloride. The series is classed as functional.
Series [10] in a line: Cytotoxicity against human L02 cells assessed as cell viability at 64 ug/ml measured after 48 hrs relative to control. The following applies: at 64 µg/mL, read-out: Activity. In kind it is toxicity, cell-based.
Series [11] concerns Enterococcus faecalis. The series can be described thus: Additive antibacterial activity against multidrug resistant Enterococcus faecalis ATCC 51299 assessed as fractional inhibitory concentration in presence of norfloxacin. In kind it is functional.
Series [12] deals with Enterococcus faecalis. The series can be described thus: Antibacterial activity against multidrug resistant Enterococcus faecalis ATCC 51299 infected in cyclophosphamide immunosuppressed mouse model of abdominal infection assessed as eradication of bacterial colonies in liver at 1.25 to 5 mg/kg measured after 60 hrs relative to control. In kind it is functional. Particulars: dose 1.25-5 mg/kg.

Series [13] relates to Staphylococcus aureus. Put plainly: Antibacterial activity against methicillin resistant Staphylococcus aureus clinical isolate 011. The series is classed as functional.
The test system of series [14] is Staphylococcus aureus. Put plainly: Additive antibacterial activity against methicillin resistant Staphylococcus aureus clinical isolate 003 assessed as fractional inhibitory concentration in presence of azithromycin. The series is classed as functional.
The subject of series [15] is Cell membrane. Put plainly: Induction of cell membrane damage in methicillin resistant Staphylococcus aureus clinical isolate 003 assessed as bacterial death at 2 to 4 times MIC by confocal laser scanning microscopy. The series is classed as cell membranes.
For series [16], the system named is Cell membrane. Put plainly: Induction of membrane damage in methicillin resistant Staphylococcus aureus clinical isolate 003 assessed as deformation of bacterial surface at 2 to 4 times MIC by SEM analysis. The series is classed as cell membranes.
Series [17] has as its system Enterococcus faecalis. The series can be described thus: Antibacterial activity against multidrug resistant Enterococcus faecalis ATCC 51299 in presence of phosphatidylglycerol. In kind it is functional, organism-based.
Series [18] relates to Enterococcus faecalis. Put plainly: Antibacterial activity against multidrug resistant Enterococcus faecalis ATCC 51299 infected in cyclophosphamide immunosuppressed mouse model of abdominal infection assessed as reduction in inflammatory infiltration at 1.25 to 5 mg/kg measured after 60 hrs by H and E staining based analysis. In kind it is functional, organism-based. The following applies: dose 1.25-5 mg/kg.

The test system of series [19] is Staphylococcus aureus. The series can be described thus: Antibacterial activity against methicillin resistant Staphylococcus aureus clinical isolate 003 infected in cyclophosphamide immunosuppressed mouse model of skin wound infection assessed as reduction in bacterial load in wound at 2.5 mg/kg administered for 7 days and measured on day 8 (reference value: 1.6 x 10^8 CFU). The series is classed as functional. The following applies: time 8 day.

For series [20], the system named is Enterococcus faecalis. The series can be described thus: Antibacterial activity against multidrug resistant Enterococcus faecalis ATCC 51299 in presence of 4.5 mM/L K+ (reference value: 1 ug/ml). The series is classed as functional.
Series [21] relates to Cell membrane. The series can be described thus: Induction of membrane damage in multidrug resistant Enterococcus faecalis ATCC 51299 assessed as rupture of bacterial surface at 2 to 4 times MIC by SEM analysis. In kind it is cell membranes.
In series [22] the test system is Enterococcus faecalis. The series can be described thus: Synergistic antibacterial activity against multidrug resistant Enterococcus faecalis ATCC 51299 assessed as fractional inhibitory concentration in presence of azithromycin. The series is classed as functional.
Series [23] relates to Enterococcus faecalis. The series can be described thus: Antibacterial activity against multidrug resistant Enterococcus faecalis ATCC 51299 in presence of 140 mM/L Na+ (reference value: 1 ug/ml). In kind it is functional.
For series [24], the system named is Enterococcus faecalis. The series can be described thus: Antibacterial activity against multidrug resistant Enterococcus faecalis ATCC 51299 infected in cyclophosphamide immunosuppressed mouse model of abdominal infection assessed as reduction in cell degeneration at 1.25 to 5 mg/kg measured after 60 hrs by H and E staining based analysis. The series is classed as functional, organism-based. Particulars: dose 1.25-5 mg/kg.

Series [25] deals with Staphylococcus aureus. The series can be described thus: Synergistic antibacterial activity against methicillin resistant Staphylococcus aureus clinical isolate 003 assessed as fractional inhibitory concentration in presence of tetracycline. The series is classed as functional.
Series [26] relates to Staphylococcus aureus. The series can be described thus: Additive antibacterial activity against methicillin resistant Staphylococcus aureus clinical isolate 003 assessed as fractional inhibitory concentration in presence of vancomycin. In kind it is functional.
Series [27] concerns Staphylococcus aureus. The series can be described thus: Antibacterial activity against methicillin resistant Staphylococcus aureus clinical isolate 003 infected in cyclophosphamide immunosuppressed mouse model of skin wound infection assessed as increase in wound healing by measuring increase in VEGF expression at 1.25 to 5 mg/kg administered for 7 days and measured on day 8 by immunohistochemical analysis. In kind it is functional, organism-based. The following applies: dose 1.25-5 mg/kg, time 8.0 day.

Series [28] relates to Staphylococcus aureus. Put plainly: Antibiofilm activity in methicillin resistant Staphylococcus aureus clinical isolate 003 assessed as biofilm clearance rate at 4 times MIC by crystal violet staining based analysis relative to control. The series is classed as functional.
The test system of series [29] is Cell membrane. The series can be described thus: Induction of membrane damage in methicillin resistant Staphylococcus aureus clinical isolate 003 assessed as rupture of bacterial surface at 2 to 4 times MIC by SEM analysis. In kind it is cell membranes.
The subject of series [30] is Enterococcus faecalis. Put plainly: Antibacterial activity against multidrug resistant Enterococcus faecalis ATCC 51299 infected in cyclophosphamide immunosuppressed mouse model of abdominal infection assessed as eradication of bacterial colonies in kidney at 1.25 to 5 mg/kg measured after 60 hrs relative to control. The series is classed as functional. Particulars: dose 1.25-5 mg/kg.

Series [31] concerns Enterococcus faecalis. Put plainly: Antibacterial activity against multidrug resistant Enterococcus faecalis ATCC 51299 in presence of 1 mM/L Mg2+ (reference value: 1 ug/ml). In kind it is functional.
In series [32] the test system is Staphylococcus aureus. The series can be described thus: Antibacterial activity against methicillin resistant Staphylococcus aureus clinical isolate 003 in presence of 4.5 mM/L K+ (reference value: 0.5 ug/ml). The series is classed as functional.
In series [33] the test system is Staphylococcus aureus. The series can be described thus: Antibacterial activity against methicillin resistant Staphylococcus aureus clinical isolate 003 in presence of 1 mM/L Mg2+ (reference value: 0.5 ug/ml). In kind it is functional.
For series [34], the system named is Enterococcus faecalis. Put plainly: Antibacterial activity against multidrug resistant Enterococcus faecalis ATCC 51299 in presence of 140 mM/L Na+ (reference value: 32 ug/ml). In kind it is functional.
The test system of series [35] is Staphylococcus aureus. The series can be described thus: Antibacterial activity against methicillin resistant Staphylococcus aureus clinical isolate 003 in presence of 2.5 mM/L Ca2+ (reference value: 1 ug/ml). The series is classed as functional.
Series [36] deals with Enterococcus faecalis. The series can be described thus: Antibacterial activity against multidrug resistant Enterococcus faecalis ATCC 51299 in presence of 1 mM/L Mg2+ (reference value: 32 ug/ml). The series is classed as functional.
Series [37] relates to Enterococcus faecalis. Put plainly: Antibacterial activity against multidrug resistant Enterococcus faecalis ATCC 51299 in presence of 4.5 mM/L K+ (reference value: 32 ug/ml). In kind it is functional.
Series [38] has as its system Staphylococcus aureus. The series can be described thus: Antibacterial activity against methicillin resistant Staphylococcus aureus clinical isolate 003 in presence of 1 mM/L Mg2+ (reference value: 1 ug/ml). In kind it is functional.

As a reminder, the MIC is the least concentration at which growth counts as inhibited. In the case of `CCCCCCc1c(-c2ccc(OCCCCNCCCN)cc2OCCCCNCCCN)oc2cc(OC)cc(O)c2c1=O`, the outcome in the series on Cell membrane [1], in the series on Cell membrane [7], in the series with Staphylococcus aureus [8], in the series with Cell membrane [15], with Cell membrane [16] and in the series on Enterococcus faecalis [18] was Active. The outcome with Cell membrane [21], in the series on Enterococcus faecalis [24], in the series with Staphylococcus aureus [27] and in the series on Cell membrane [29] was Active. For the same compound, the MIC in the series on Enterococcus faecalis [2] is 1 µg/mL; against Enterococcus faecalis [5], 0.5 µg/mL (≈ 0.78 µM); against Staphylococcus aureus [13] it was 0.25 µg/mL (≈ 0.39 µM); in the series on Enterococcus faecalis [20], 1 µg/mL; with Enterococcus faecalis [23] it was 1 µg/mL; with Enterococcus faecalis [31], 1 µg/mL. Moreover, the “fractional inhibitory concentration index (FICI)” value with Staphylococcus aureus [3] stood at 0.75; in the series with Enterococcus faecalis [6], 0.75; in the series on Enterococcus faecalis [9], 0.5; in the series with Enterococcus faecalis [11], 1; with Staphylococcus aureus [14], 0.75; in the series on Enterococcus faecalis [22], 0.313. Besides, the “fractional inhibitory concentration index (FICI)” value in the series with Staphylococcus aureus [25] worked out at 0.375; in the series with Staphylococcus aureus [26], 1. For the same compound, the result with Staphylococcus aureus [4] and with Enterococcus faecalis [17] was inactive. Further, the viability at 48 h, 64 ug/ml in series [10] was above 50%. Also, the Activity is recorded as 97% in the series on Enterococcus faecalis [12], 8 10^6CFU in the series with Staphylococcus aureus [19], around 80% in the series on Staphylococcus aureus [28] and 99.2% with Enterococcus faecalis [30].
As for `CCCCCCc1c(-c2ccc(OCCCCN(C)C)cc2OCCCCN(C)C)oc2cc(OC)cc(O)c2c1=O`, the result in the series with Cell membrane [1], in the series on Cell membrane [7], with Cell membrane [15], with Cell membrane [16], in the series on Cell membrane [21] and in the series on Cell membrane [29] was Active. The MIC was 1 µg/mL in the series on Enterococcus faecalis [2]; 1 µg/mL (≈ 1.72 µM) against Enterococcus faecalis [5]; 1 µg/mL (≈ 1.72 µM) against Staphylococcus aureus [13]; 1 µg/mL in the series with Enterococcus faecalis [20]; 0.5 µg/mL in the series with Staphylococcus aureus [32]; 0.5 µg/mL in the series on Staphylococcus aureus [33]. For the same compound, the MIC in the series on Enterococcus faecalis [23] and with Enterococcus faecalis [31] was 1 µg/mL throughout. Further, the outcome with Staphylococcus aureus [4] and in the series with Enterococcus faecalis [17] was inactive. In the series with Staphylococcus aureus [28], the Activity was around 80%.
With `CCCCCCc1c(-c2ccc(OCC(=O)CN[C@H](CCCNC(=N)N)C(=O)OC)cc2OCC(=O)CN[C@H](CCCNC(=N)N)C(=O)OC)oc2cc(OC)cc(O)c2c1=O`, the result in the series on Cell membrane [1], with Cell membrane [7], in the series on Cell membrane [15], in the series with Cell membrane [16], in the series with Cell membrane [21] and in the series on Cell membrane [29] was Active. In addition, the result in the series with Staphylococcus aureus [4] and in the series on Enterococcus faecalis [17] was inactive. Besides, the MIC is 32 µg/mL (≈ 36.8 µM) against Enterococcus faecalis [5]; 32 µg/mL with Enterococcus faecalis [34]; 1 µg/mL (≈ 1.15 µM) against Staphylococcus aureus [13]; 1 µg/mL in the series with Staphylococcus aureus [35]; 32 µg/mL with Enterococcus faecalis [36]; 32 µg/mL with Enterococcus faecalis [37]. The MIC with Staphylococcus aureus [38] worked out at 1 µg/mL. Besides, the Activity with Staphylococcus aureus [28] is around 80%.
